Patent US4100346A, “Certain 7(o-amino-methyl- or methylaminomethylphenyl- or cyclohexadienyl- or thienylacetamide)-3[1-carboxymethyl-(or ethyl- or propyl-)-tetrazol-5-ylthiomethyl]-3-cephem-4-carboxylic acids” (Bristol-Myers Company, priority 1976, dated 1978)
In brackets after ≈: the same amount, converted by molar mass. Structures can show the parent of a compound that is named as a salt.

Experiments:
[1] = Solubility in water, buffer or urine
[2] = physchem; details: solid
[3] = tested on: D. pneumoniae; test: MIC by Tube Dilution Technique in Nutrient Broth (Example 9 table); type: cell-based; details: Streptococcus pneumoniae; Dp-4 D. pneumoniae A9585
Description: (§1) MIC (mcg./ml.) by Tube Dilution Technique in Nutrient Broth.

[4] = tested on: E. cloacae; test: as above; type: cell-based; details: Enterobacter cloacae; El-1 E. cloacae A9656
Description: as §1

[5] = tested on: E. coli; test: as above; type: cell-based; details: Escherichia coli
Description: as §1

[6] = tested on: K. pneumoniae; test: as above; type: cell-based; details: Klebsiella pneumoniae
Description: as §1

[7] = tested on: P. aeruginosa; test: as above; type: cell-based; details: Pseudomonas aeruginosa; P. aeruginosa A9843
Description: as §1

[8] = tested on: P. mirabilis; test: as above; type: cell-based; details: Proteus mirabilis; Pm-2 P. mirabilis A9900
Description: as §1

[9] = tested on: P. morganii; test: as above; type: cell-based; details: Morganella morganii; Pg-8 P. morganii A15153
Description: as §1

[10] = tested on: S. aureus; test: as above; type: cell-based; details: Staphylococcus aureus
Description: as §1

[11] = tested on: S. enteritidis; test: as above; type: cell-based; details: Salmonella enterica; Se-1 S. enteritidis A9531
Description: as §1

[12] = tested on: S. marcescens; test: as above; type: cell-based; details: Serratia marcescens; Sm-1 S. marcescens A20019
Description: as §1

[13] = tested on: S. pyogenes; test: as above; type: cell-based; details: Streptococcus pyogenes; Sp-3 S. pyogenes A9604
Description: as §1

[14] = tested on: Str. pneumoniae; test: M.I.C. by Tube Dilution in Nutrient Broth (Examples 1 and 2); type: cell-based; details: Streptococcus pneumoniae; Str. pneumoniae A9585 (10^-3 dilution of overnight broth culture); 45% Antibiotic Assay Broth + 50% Nutrient Broth + 5% serum
Description: (§2) *45% Antibiotic Assay Broth + 50% Nutrient Broth + 5% serum
(§3) **Dilution of overnight broth culture

[15] = tested on: Str. pyogenes; test: as above; type: cell-based; details: Streptococcus pyogenes; Str. pyogenes A9604 (10^-3); 45% Antibiotic Assay Broth + 50% Nutrient Broth + 5% serum
Description: as §2, §3

[16] = tested on: E. coli; test: as above; type: cell-based; details: Escherichia coli
Description: (§4) | **Dilution of overnight broth culture

[17] = tested on: Ent. cloacae; test: as above; type: cell-based; details: Enterobacter cloacae
Description: as §4

[18] = tested on: K. pneumoniae; test: as above; type: cell-based; details: Klebsiella pneumoniae
Description: as §4

[19] = tested on: Pr. mirabilis; test: as above; type: cell-based; details: Proteus mirabilis; Pr. mirabilis A9900 (10^-4)
Description: as §4

[20] = tested on: Pr. morganii; test: as above; type: cell-based; details: Morganella morganii; Pr. morganii A15153 (10^-4)
Description: as §4

[21] = tested on: Ps. aeruginosa; test: as above; type: cell-based; details: Pseudomonas aeruginosa; read-out: M.I.C.
Description: as §4

[22] = tested on: S. aureus; test: as above; type: cell-based; details: Staphylococcus aureus
Description: as §4

[23] = tested on: Sal. enteritidis; test: as above; type: cell-based; details: Salmonella enterica; Sal. enteritidis A9531 (10 ^4)
Description: as §4

[24] = tested on: Ser. marcescens; test: as above; type: cell-based; details: Serratia marcescens; Ser. marcescens A20019 (10^-4)
Description: as §4

[25] = Solid stability at elevated temperatures
[26] = Stability of aqueous solutions at room temperature (loss of activity)
[27] = Blood level in mice after intramuscular injection (Example 7); type: in vivo; details: mouse, im, intramuscularly, 10 mg./kg. of body weight, at 15 minutes
Protocol: The IR and NMR were consistent with the title product, but indicated about 20% impurities, primarily starting material. When this compound was administered intramuscularly by injection at a dose of 10 mg./kg. of body weight in mice, a blood level of […]. was obtained at 15 minutes.

**Q.** Which results are given for `Cn1nnnc1SCC1=C(C(=O)O)N2C(=O)[C@@H](NC(=O)Cc3ccccc3CN)[C@H]2SC1` [7-(o-aminomethylphenylacetamido)-3-(1-methyl-1,2,3,4-tetrazol-5-ylthiomethyl)-3-cephem-4-carboxylic acid]?
**A.** lowest pH able to dissolve 150 mg./ml. ([1]; room temperature): 10.3; solubility ([1]; solubility, in both buffered aqueous media and in dog urine at room temperature): 1 to 3 mg/mL (≈ 2100 to 6310 µM)

**Q.** Which degraded at 730 h [2] does the source give for `NCc1ccccc1CC(=O)N[C@@H]1C(=O)N2C(C(=O)O)=C(CSc3nnnn3CC(=O)O)CS[C@H]12` [BL-S786: L-Lysine Salt] here?
**A.** The degraded at 730 h was less than 10%.

**Q.** Which results are given for `Cn1nnnc1SCC1=C(C(=O)O)N2C(=O)[C@@H](NC(=O)[C@H](O)c3ccccc3)[C@H]2SC1` [Cefamandole]?
**A.** MIC [3]: 0.08 µg/mL (≈ 0.173 µM); MIC [4]: 50 µg/mL (≈ 108 µM); MIC ([5]; Ec-1 E. coli NIHJ): 1.6 µg/mL (≈ 3.46 µM); MIC ([5]; Ec-3 E. coli Juhl A15119): 0.8 µg/mL (≈ 1.73 µM); MIC ([5]; Ec-58 E. coli A9675): 3.1 µg/mL (≈ 6.7 µM); MIC ([6]; Kp-3 K. pneumoniae A9977): 0.8 µg/mL (≈ 1.73 µM); MIC ([6]; Kp-4 K. pneumoniae A15130): 6.3 µg/mL (≈ 13.6 µM); MIC [7]: > 100 µg/mL; MIC [8]: 0.8 µg/mL (≈ 1.73 µM); MIC [9]: 3.1 µg/mL (≈ 6.7 µM); MIC ([10]; Sa-2 S. aureus +50% serum): 1.6 µg/mL (≈ 3.46 µM); MIC ([10]; Sa-2 S. aureus Smith A9537): 0.8 µg/mL (≈ 1.73 µM); MIC ([10]; Sa-11 S. aureus BX-1633 A9606): 1.6 µg/mL (≈ 3.46 µM); MIC ([10]; Sa-44 S. aureus A15097): 3.1 µg/mL (≈ 6.7 µM); MIC [11]: 0.4 µg/mL (≈ 0.865 µM); MIC [12]: > 100 µg/mL; MIC [13]: 0.08 µg/mL (≈ 0.173 µM)

**Q.** For `NCC1=C(CC(=O)N[C@@H]2C(=O)N3C(C(=O)O)=C(CSc4nnnn4CC(=O)O)CS[C@H]23)CC=CC1` [Example 2, 7-(2-Aminomethyl-1,4-cyclohexadienylacetamido)-3-(1-carboxymethyltetrazol-5-ylthiomethyl)-3-cephem-4-carboxylic acid], which MIC [14] is on record?
**A.** The MIC was 0.06 µg/mL.

**Q.** And the MIC [15]?
**A.** Its MIC is 0.13 µg/mL.

**Q.** What about the MIC ([16]; E. coli A9675 (10^-4)) of the same compound?
**A.** Its MIC is 16 µg/mL (≈ 30.7 µM).

**Q.** What about the MIC ([16]; E. coli Juhl A15119 (10^-4)) of the same compound?
**A.** The MIC was 1.3 µg/mL (≈ 2.49 µM).

**Q.** And the MIC ([17]; Ent. cloacae A9657 (10^-4))?
**A.** Its MIC is 0.3 µg/mL (≈ 0.575 µM).

**Q.** And the MIC ([17]; Ent. cloacae A9659 (10^-4))?
**A.** The MIC was 32 µg/mL (≈ 61.4 µM).

**Q.** And the MIC ([17]; Ent. cloacae A9656 (10^-4))?
**A.** Its MIC is greater than 125 µg/mL.

**Q.** And the MIC ([18]; K. pneumoniae A9977 (10^-4))?
**A.** The MIC was 0.3 µg/mL (≈ 0.575 µM).

**Q.** And the MIC ([18]; K. pneumoniae A15130 (10^-4))?
**A.** Its MIC is 2 µg/mL (≈ 3.83 µM).

**Q.** What about the MIC [19] of the same compound?
**A.** The MIC was 0.3 µg/mL (≈ 0.575 µM).

**Q.** What about the MIC [20] of the same compound?
**A.** The MIC was 8 µg/mL (≈ 15.3 µM).

**Q.** And the MIC [21]?
**A.** The MIC was greater than 125 µg/mL.

**Q.** And the MIC ([22]; S. aureus BX1633 A9606 (10^-2))?
**A.** Its MIC is 2.5 µg/mL (≈ 4.79 µM).

**Q.** What about the MIC ([22]; S. aureus BX1633 A9606 (10^-3)) of the same compound?
**A.** Its MIC is 1.3 µg/mL (≈ 2.49 µM).

**Q.** And the MIC ([22]; S. aureus Meth-Res A15097 (10^-3))?
**A.** Its MIC is 4 µg/mL (≈ 7.67 µM).

**Q.** And the MIC ([22]; S. aureus Smith A9537 (10^-4))?
**A.** The MIC was 0.5 µg/mL (≈ 0.959 µM).

**Q.** And the MIC ([22]; S. aureus-50% serum A9537 (10^-4))?
**A.** Its MIC is greater than 0.5 µg/mL.

**Q.** And the MIC [23]?
**A.** The MIC was 0.16 µg/mL (≈ 0.307 µM).

**Q.** And the MIC [24]?
**A.** The MIC was greater than 125 µg/mL.

**Q.** With `NCc1ccccc1CC(=O)N[C@@H]1C(=O)N2C(C(=O)O)=C(CSc3nnnn3CC(=O)O)CS[C@H]12` [Example 3] as the compound, how does the solubility ([1]; water, Solubility in water) read?
**A.** The solubility was greater than 500 mg/mL.

**Q.** What about the “relative stability of the solid at elevated temperatures” value [25] of the same compound?
**A.** Its value is “not as stable at elevated temperatures”.

**Q.** And the “loss of activity in solution” value ([26]; 125.0 mg./ml. at pH 7.0, room temperature, at least 24 hours)?
**A.** Its value is “no significant loss”.

**Q.** What about the “Stability in water (time stable)” value ([26]; room temperature at 250 mg./ml.) of the same compound?
**A.** The value was “at least 24 hours”.

**Q.** With `NCc1ccccc1CC(=O)N[C@@H]1C(=O)N2C(C(=O)O)=C(CSc3nnnn3CCC(=O)O)CS[C@H]12` [Example 7, 7-(2-aminomethylphenylacetamido)-3-(1-carboxyethyltetrazol-5-ylthiomethyl)-3-cephem-4-carboxylic acid] as the compound, how does the concentration at 0.25 h [27] read?
**A.** The concentration at 0.25 h was 22300 µg/mL.

**Q.** With `NCc1ccccc1CC(=O)N[C@@H]1C(=O)N2C(C(=O)O)=C(CSc3nnnn3CC(=O)O)CS[C@H]12` [Example 8, Monosodium BL-S786 Dihydrate] as the compound, how does the Solubility in water ([1]; water, Dihydrate) read?
**A.** Its Solubility in water is greater than 400 mg/mL.

**Q.** What about the “Stability of 250,000 unit/ml. solution” value ([26]; 24 hours at room temperature) of the same compound?
**A.** The value was “No loss”.

**Q.** For `CNCc1ccsc1CC(=O)N[C@@H]1C(=O)N2C(C(=O)O)=C(CSc3nnnn3CC(=O)O)CS[C@H]12` [Example 9, 7-(3-N-methylaminomethyl-2-thienylacetamido)-3-(1-carboxymethyltetrazol-5-ylthiomethyl)-3-cephem-4-carboxylic Acid], which MIC [3] is on record?
**A.** The MIC was 0.08 µg/mL (≈ 0.148 µM).

**Q.** What about the MIC [4] of the same compound?
**A.** Its MIC is 50 µg/mL (≈ 92.7 µM).

**Q.** And the MIC ([5]; Ec-1 E. coli NIHJ)?
**A.** Its MIC is 0.8 µg/mL (≈ 1.48 µM).

**Q.** And the MIC ([5]; Ec-3 E. coli Juhl A15119)?
**A.** Its MIC is 0.8 µg/mL (≈ 1.48 µM).

**Q.** And the MIC ([5]; Ec-58 E. coli A9675)?
**A.** The MIC was 12.5 µg/mL (≈ 23.2 µM).

**Q.** What about the MIC ([6]; Kp-3 K. pneumoniae A9977) of the same compound?
**A.** Its MIC is 0.2 µg/mL (≈ 0.371 µM).

**Q.** And the MIC ([6]; Kp-4 K. pneumoniae A15130)?
**A.** Its MIC is 1.6 µg/mL (≈ 2.97 µM).

**Q.** What about the MIC [7] of the same compound?
**A.** The MIC was greater than 100 µg/mL.

**Q.** What about the MIC [8] of the same compound?
**A.** Its MIC is 0.4 µg/mL (≈ 0.741 µM).

**Q.** What about the MIC [9] of the same compound?
**A.** The MIC was 12.5 µg/mL (≈ 23.2 µM).

**Q.** And the MIC ([10]; Sa-2 S. aureus +50% serum)?
**A.** Its MIC is 3.1 µg/mL (≈ 5.74 µM).

**Q.** And the MIC ([10]; Sa-2 S. aureus Smith A9537)?
**A.** Its MIC is 3.1 µg/mL (≈ 5.74 µM).

**Q.** And the MIC ([10]; Sa-11 S. aureus BX-1633 A9606)?
**A.** The MIC was 6.3 µg/mL (≈ 11.7 µM).

**Q.** What about the MIC ([10]; Sa-44 S. aureus A15097) of the same compound?
**A.** The MIC was 12.5 µg/mL (≈ 23.2 µM).

**Q.** What about the MIC [11] of the same compound?
**A.** The MIC was 0.2 µg/mL (≈ 0.371 µM).

**Q.** What about the MIC [12] of the same compound?
**A.** Its MIC is greater than 100 µg/mL.

**Q.** And the MIC [13]?
**A.** Its MIC is 0.08 µg/mL (≈ 0.148 µM).
